Data as given in PubChem BioAssay AID2060503 (Molecular Pharmacology Branch, DTP, NCI, 2025).
pIC50: −log10 of the molar value.

System: 817829-284-R-J1-PDC complex spheroids, viability
Assay: Anticancer human tumor 817829-284-R-J1-PDC patient-derived colon adenocarcinoma cell line growth inhibition [GQUAD]
Conditions: for pIC50: curve of first compound; for viability, T/C: stronger effect = lower value
Summary of the method: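 Multi-cell-type spheroids of tumor cells with HUVEC and mesenchymal stem cells, treated with drug combinations. Concentrations descend in half-log steps from near clinical Cmax, or from 10 microM where Cmax is unknown; viability read-out.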

[1] = second compound 0.0316 µM, first compound 0.0316 µM
[2] = second compound 0.0316 µM, first compound 0.1 µM
[3] = second compound 0.0316 µM, first compound 0.316 µM
[4] = second compound 0.0316 µM, first compound 1 µM
[5] = second compound 0.0316 µM, first compound 3.16 µM
[6] = second compound 0.0316 µM, first compound 10 µM
[7] = second compound 0.1 µM, first compound 0.0316 µM
[8] = second compound 0.1 µM, first compound 0.1 µM
[9] = second compound 0.1 µM, first compound 0.316 µM
[10] = second compound 0.1 µM, first compound 1 µM
[11] = second compound 0.1 µM, first compound 3.16 µM
[12] = second compound 0.1 µM, first compound 10 µM
[13] = second compound 0.316 µM, first compound 0.0316 µM
[14] = second compound 0.316 µM, first compound 0.1 µM
[15] = second compound 0.316 µM, first compound 0.316 µM
[16] = second compound 0.316 µM, first compound 1 µM
[17] = second compound 0.316 µM, first compound 3.16 µM
[18] = second compound 0.316 µM, first compound 10 µM
[19] = second compound 1 µM, first compound 0.0316 µM
[20] = second compound 1 µM, first compound 0.1 µM
[21] = second compound 1 µM, first compound 0.316 µM
[22] = second compound 1 µM, first compound 1 µM
[23] = second compound 1 µM, first compound 3.16 µM
[24] = second compound 1 µM, first compound 10 µM
[25] = second compound 3.16 µM, first compound 0.0316 µM
[26] = second compound 3.16 µM, first compound 0.1 µM
[27] = second compound 3.16 µM, first compound 0.316 µM
[28] = second compound 3.16 µM, first compound 1 µM
[29] = second compound 3.16 µM, first compound 3.16 µM
[30] = second compound 3.16 µM, first compound 10 µM
[31] = second compound 10 µM, first compound 0.0316 µM
[32] = second compound 10 µM, first compound 0.1 µM
[33] = second compound 10 µM, first compound 0.316 µM
[34] = second compound 10 µM, first compound 1 µM
[35] = second compound 10 µM, first compound 3.16 µM
[36] = second compound 10 µM, first compound 10 µM
[37] = second compound 0.0316 µM, first compound 0.000999 µM
[38] = second compound 0.0316 µM, first compound 0.00316 µM
[39] = second compound 0.0316 µM, first compound 0.00999 µM
[40] = second compound 0.0316 µM, first compound 0.0999 µM
[41] = second compound 0.1 µM, first compound 0.000999 µM
[42] = second compound 0.1 µM, first compound 0.00316 µM
[43] = second compound 0.1 µM, first compound 0.00999 µM
[44] = second compound 0.1 µM, first compound 0.0999 µM
[45] = second compound 0.316 µM, first compound 0.000999 µM
[46] = second compound 0.316 µM, first compound 0.00316 µM
[47] = second compound 0.316 µM, first compound 0.00999 µM
[48] = second compound 0.316 µM, first compound 0.0999 µM
[49] = second compound 1 µM, first compound 0.000999 µM
[50] = second compound 1 µM, first compound 0.00316 µM
[51] = second compound 1 µM, first compound 0.00999 µM
[52] = second compound 1 µM, first compound 0.0999 µM
[53] = second compound 3.16 µM, first compound 0.000999 µM
[54] = second compound 3.16 µM, first compound 0.00316 µM
[55] = second compound 3.16 µM, first compound 0.00999 µM
[56] = second compound 3.16 µM, first compound 0.0999 µM
[57] = second compound 10 µM, first compound 0.000999 µM
[58] = second compound 10 µM, first compound 0.00316 µM
[59] = second compound 10 µM, first compound 0.00999 µM
[60] = second compound 10 µM, first compound 0.0999 µM
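Note: spheroids exposed to agents for 7 days before readout.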
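Throughout, for viability, T/C: percent viability relative to DMSO vehicle control taken as 100%.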

C=CC(=O)N1CCN(c2nc(=O)n(-c3c(C)ccnc3C(C)C)c3nc(-c4c(O)cccc4F)c(F)cc23)C(C)C1 (stereo not drawn) + Cc1cnc(CNC(=O)c2c(=O)c3ccc(N4CCCN(C)CC4)nc3n3c2sc2ccccc23)cn1
pIC50 (second compound 0.0316 µM): 5.10
pIC50 (second compound 0.1 µM): > 7.50
pIC50 (second compound 0.316 µM): > 7.50
pIC50 (second compound 1 µM): > 7.50
pIC50 (second compound 3.16 µM): > 7.50
pIC50 (second compound 10 µM): > 7.50
viability, T/C [1]: 87.4%
viability, T/C [2]: 59.1%
viability, T/C [3]: 90.8%
viability, T/C [4]: 55.7%
viability, T/C [5]: 76.5%
viability, T/C [6]: 44.3%
viability, T/C [7]: 34.2%
viability, T/C [8]: 38.1%
viability, T/C [9]: 30.2%
viability, T/C [10]: 34.2%
viability, T/C [11]: 29.9%
viability, T/C [12]: 26.8%
viability, T/C [13]: 26.6%
viability, T/C [14]: 28.8%
viability, T/C [15]: 28.4%
viability, T/C [16]: 24.9%
viability, T/C [17]: 29.5%
viability, T/C [18]: 20.5%
viability, T/C [19]: 18.8%
viability, T/C [20]: 27.1%
viability, T/C [21]: 22.6%
viability, T/C [22]: 21.1%
viability, T/C [23]: 24.3%
viability, T/C [24]: 19.6%
viability, T/C [25]: 21.8%
viability, T/C [26]: 21.3%
viability, T/C [27]: 22.5%
viability, T/C [28]: 19.1%
viability, T/C [29]: 16.7%
viability, T/C [30]: 16.9%
viability, T/C [31]: 0.19%
viability, T/C [32]: 0.21%
viability, T/C [33]: 0.19%
viability, T/C [34]: 0.19%
viability, T/C [35]: 0.2%
viability, T/C [36]: 0.19%

CCc1c2c(nc3ccc(O)cc13)-c1cc3c(c(=O)n1C2)COC(=O)[C@]3(O)CC + Cc1[nH]c2ccc(F)cc2c1-c1nc2c3cccnc3c3ncccc3c2[nH]1
pIC50 (second compound 0.0316 µM): 8.76
pIC50 (second compound 0.1 µM): 9.00
pIC50 (second compound 0.316 µM): > 9.00
pIC50 (second compound 1 µM): > 9.00
pIC50 (second compound 3.16 µM): > 9.00
pIC50 (second compound 10 µM): > 9.00
viability, T/C [37]: 65.2%
viability, T/C [38]: 28.1%
viability, T/C [39]: 30.3%
viability, T/C [1]: 13.1%
viability, T/C [40]: 8.01%
viability, T/C [3]: 4.19%
viability, T/C [41]: 51.3%
viability, T/C [42]: 33.6%
viability, T/C [43]: 27.8%
viability, T/C [7]: 14.9%
viability, T/C [44]: 9.56%
viability, T/C [9]: 4.38%
viability, T/C [45]: 43.5%
viability, T/C [46]: 35.6%
viability, T/C [47]: 23.6%
viability, T/C [13]: 16.7%
viability, T/C [48]: 8.62%
viability, T/C [15]: 5.24%
viability, T/C [49]: 43%
viability, T/C [50]: 30.6%
viability, T/C [51]: 24.6%
viability, T/C [19]: 15%
viability, T/C [52]: 8.8%
viability, T/C [21]: 4.41%
viability, T/C [53]: 30.3%
viability, T/C [54]: 16.4%
viability, T/C [55]: 13.8%
viability, T/C [25]: 10.8%
viability, T/C [56]: 5.28%
viability, T/C [27]: 2.61%
viability, T/C [57]: 6.96%
viability, T/C [58]: 7.65%
viability, T/C [59]: 4.74%
viability, T/C [31]: 5.66%
viability, T/C [60]: 3.66%
viability, T/C [33]: 1.35%

CCCS(=O)(=O)Nc1ccc(F)c(C(=O)c2c[nH]c3ncc(-c4ccc(Cl)cc4)cc23)c1F + Cc1[nH]c2ccc(F)cc2c1-c1nc2c3cccnc3c3ncccc3c2[nH]1
pIC50 (second compound 0.0316 µM): 5.23
pIC50 (second compound 0.1 µM): 5.27
pIC50 (second compound 0.316 µM): 5.23
pIC50 (second compound 1 µM): 5.26
pIC50 (second compound 3.16 µM): 7.17
pIC50 (second compound 10 µM): 7.26
viability, T/C [1]: 107%
viability, T/C [2]: 106%
viability, T/C [3]: 102%
viability, T/C [4]: 107%
viability, T/C [5]: 85%
viability, T/C [6]: 19.3%
viability, T/C [7]: 117%
viability, T/C [8]: 107%
viability, T/C [9]: 111%
viability, T/C [10]: 95.4%
viability, T/C [11]: 74.1%
viability, T/C [12]: 22.6%
viability, T/C [13]: 102%
viability, T/C [14]: 113%
viability, T/C [15]: 106%
viability, T/C [16]: 92%
viability, T/C [17]: 84.9%
viability, T/C [18]: 21.6%
viability, T/C [19]: 117%
viability, T/C [20]: 106%
viability, T/C [21]: 119%
viability, T/C [22]: 101%
viability, T/C [23]: 80.8%
viability, T/C [24]: 16.9%
viability, T/C [25]: 60.6%
viability, T/C [26]: 40.4%
viability, T/C [27]: 38%
viability, T/C [28]: 23.6%
viability, T/C [29]: 21.1%
viability, T/C [30]: 10.1%
viability, T/C [31]: 67.5%
viability, T/C [32]: 30.9%
viability, T/C [33]: 12%
viability, T/C [34]: 5.4%
viability, T/C [35]: 4.9%
viability, T/C [36]: 5.95%

Cc1[nH]c2ccccc2c1CCNCc1ccc(/C=C/C(=O)NO)cc1 + CN(C)c1ccc(Nc2c3ccc(NC(=O)CCN4CCCC4)cc3nc3cc(NC(=O)CCN4CCCC4)ccc23)cc1
pIC50 (second compound 0.0316 µM): 7.28
pIC50 (second compound 0.1 µM): 7.34
pIC50 (second compound 0.316 µM): 7.33
pIC50 (second compound 1 µM): 7.27
pIC50 (second compound 3.16 µM): 7.32
pIC50 (second compound 10 µM): 7.72
viability, T/C [37]: 108%
viability, T/C [38]: 99.3%
viability, T/C [39]: 126%
viability, T/C [1]: 86.1%
viability, T/C [40]: 3.89%
viability, T/C [3]: 0.19%
viability, T/C [41]: 89.8%
viability, T/C [42]: 110%
viability, T/C [43]: 109%
viability, T/C [7]: 72.3%
viability, T/C [44]: 3.79%
viability, T/C [9]: 0.12%
viability, T/C [45]: 94.1%
viability, T/C [46]: 115%
viability, T/C [47]: 117%
viability, T/C [13]: 75.3%
viability, T/C [48]: 3.89%
viability, T/C [15]: 0.11%
viability, T/C [49]: 104%
viability, T/C [50]: 100%
viability, T/C [51]: 126%
viability, T/C [19]: 88.4%
viability, T/C [52]: 4.37%
viability, T/C [21]: 0.14%
viability, T/C [53]: 96.1%
viability, T/C [54]: 99.2%
viability, T/C [55]: 119%
viability, T/C [25]: 76.1%
viability, T/C [56]: 5.12%
viability, T/C [27]: 0.15%
viability, T/C [57]: 99.2%
viability, T/C [58]: 113%
viability, T/C [59]: 78.6%
viability, T/C [31]: 27.2%
viability, T/C [60]: 1.95%
viability, T/C [33]: 0.22%
